Several values for one entry are separate records, joined by “and”; a condition that tells them apart may be missing. Equal entries are not always repeated. Inconclusive results and toxic doses are left out.
Tested on: L1210 leukemia ip in BDF1 mice, survival T/C
Experiment: NCI In Vivo Anticancer Drug Screen. Data for tumor model L1210 Leukemia (intraperitoneal) in B6D2F1 (BDF1) mice
Settings: endpoint: mean survival time, higher = longer survival
Outline: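 Ratio derived from survival: compound-dosed mice over vehicle-dosed mice, all bearing a transplantable tumor.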

[1] = dose: 100.0 mg/kg/injection, schedule: Q01DX001 (ip), vehicle: carboxymethylcellulose (CMC)
[2] = dose: 200.0 mg/kg/injection, schedule: Q01DX001 (ip), vehicle: carboxymethylcellulose (CMC)
[3] = dose: 100.0 mg/kg/injection, schedule: Q04DX003 (ip), vehicle: saline with Tween-80
[4] = dose: 200.0 mg/kg/injection, schedule: Q04DX003 (ip), vehicle: saline with Tween-80
[5] = dose: 400.0 mg/kg/injection, schedule: Q04DX003 (ip), vehicle: saline with Tween-80
[6] = dose: 100.0 mg/kg/injection, schedule: Q01DX009 (ip), vehicle: Klucel (hydroxypropylcellulose) (HPC)
[7] = dose: 200.0 mg/kg/injection, schedule: Q01DX009 (ip), vehicle: Klucel (hydroxypropylcellulose) (HPC)
[8] = dose: 400.0 mg/kg/injection, schedule: Q01DX009 (ip), vehicle: Klucel (hydroxypropylcellulose) (HPC)
[9] = dose: 25.0 mg/kg/injection, schedule: Q04DX003 (ip), vehicle: saline
[10] = dose: 50.0 mg/kg/injection, schedule: Q04DX003 (ip), vehicle: saline
[11] = dose: 100.0 mg/kg/injection, schedule: Q04DX003 (ip), vehicle: saline
[12] = dose: 100.0 mg/kg/injection, schedule: Q04DX003 (ip), vehicle: acetone
[13] = dose: 200.0 mg/kg/injection, schedule: Q04DX003 (ip), vehicle: acetone
[14] = dose: 400.0 mg/kg/injection, schedule: Q04DX003 (ip), vehicle: acetone
[15] = dose: 100.0 mg/kg/injection, schedule: Q01DX001 (ip), vehicle: saline
[16] = dose: 200.0 mg/kg/injection, schedule: Q01DX001 (ip), vehicle: saline

Structure (SMILES): CC(=O)OC1=C(CC=C(C)C)C(=O)c2ccccc2C1=O
- T/C (dose: 50.0 mg/kg/injection, schedule: Q01DX001 (ip), vehicle: water): 97 % of control
- T/C (dose: 100.0 mg/kg/injection, schedule: Q01DX001 (ip), vehicle: water): 95 % of control
- T/C (dose: 200.0 mg/kg/injection, schedule: Q01DX001 (ip), vehicle: water): 100 % of control
- T/C (dose: 400.0 mg/kg/injection, schedule: Q01DX001 (ip), vehicle: water): 104 % of control

Structure (SMILES): O=P(NC12CC3CC(CC(C3)C1)C2)(N1CC1)N1CC1
- T/C (dose: 4.0 mg/kg/injection, schedule: Q04DX003 (ip), vehicle: Klucel (hydroxypropylcellulose) (HPC)): 107 % of control
- T/C (dose: 9.0 mg/kg/injection, schedule: Q04DX003 (ip), vehicle: Klucel (hydroxypropylcellulose) (HPC)): 150 % of control
- T/C (dose: 13.3 mg/kg/injection, schedule: Q04DX003 (ip), vehicle: Klucel (hydroxypropylcellulose) (HPC)): 152 % of control and 182 % of control
- T/C (dose: 20.0 mg/kg/injection, schedule: Q04DX003 (ip), vehicle: Klucel (hydroxypropylcellulose) (HPC)): 155 % of control and 176 % of control and 225 % of control
- T/C (dose: 27.0 mg/kg/injection, schedule: Q01DX001 (ip), vehicle: Klucel (hydroxypropylcellulose) (HPC)): 169 % of control
- T/C (dose: 30.0 mg/kg/injection, schedule: Q04DX003 (ip), vehicle: Klucel (hydroxypropylcellulose) (HPC)): 92 % of control

Structure (SMILES): Cc1ccc(S(=O)(=O)N=S(Cc2ccccc2)Cc2ccccc2)cc1
- T/C (dose: 50.0 mg/kg/injection, schedule: Q01DX001 (ip), vehicle: saline sonified): 103 % of control
- T/C (dose: 100.0 mg/kg/injection, schedule: Q01DX001 (ip), vehicle: saline sonified): 108 % of control
- T/C (dose: 200.0 mg/kg/injection, schedule: Q01DX001 (ip), vehicle: saline sonified): 95 % of control

Structure (SMILES): O=C(Oc1ccc(N=Nc2ccccc2)c(C(=O)O)c1)Oc1ccc(N=Nc2ccccc2)c(C(=O)O)c1
- T/C [1]: 101 % of control
- T/C [2]: 98 % of control

Structure (SMILES): Cc1ccc(Cl)cc1NC(=O)N(C)Cc1ccccc1
- T/C (dose: 100.0 mg/kg/injection, schedule: Q01DX009 (ip), vehicle: saline with Tween-80): 95 % of control and 104 % of control
- T/C (dose: 100.0 mg/kg/injection, schedule: Q04DX002 (ip), vehicle: saline with Tween-80): 94 % of control and 120 % of control
- T/C [3]: 100 % of control
- T/C (dose: 200.0 mg/kg/injection, schedule: Q01DX009 (ip), vehicle: saline with Tween-80): 97 % of control and 104 % of control
- T/C (dose: 200.0 mg/kg/injection, schedule: Q04DX002 (ip), vehicle: saline with Tween-80): 98 % of control and 105 % of control
- T/C [4]: 105 % of control
- T/C (dose: 400.0 mg/kg/injection, schedule: Q01DX009 (ip), vehicle: saline with Tween-80): 97 % of control and 108 % of control
- T/C (dose: 400.0 mg/kg/injection, schedule: Q04DX002 (ip), vehicle: saline with Tween-80): 98 % of control and 86 % of control
- T/C [5]: 108 % of control

Structure (SMILES): CC1CCS(=O)(=O)CC1.[Cl][Hg][Cl]
- T/C (dose: 0.31 mg/kg/injection, schedule: Q01DX009 (ip), vehicle: saline): 95 % of control
- T/C (dose: 0.62 mg/kg/injection, schedule: Q01DX009 (ip), vehicle: saline): 86 % of control
- T/C (dose: 1.25 mg/kg/injection, schedule: Q01DX009 (ip), vehicle: saline): 91 % of control

Structure (SMILES): Clc1ccc(SCSc2nc3ccccc3s2)cc1
- T/C (dose: 25.0 mg/kg/injection, schedule: Q04DX002 (ip), vehicle: Klucel (hydroxypropylcellulose) (HPC)): 105 % of control
- T/C (dose: 50.0 mg/kg/injection, schedule: Q04DX002 (ip), vehicle: Klucel (hydroxypropylcellulose) (HPC)): 86 % of control
- T/C (dose: 100.0 mg/kg/injection, schedule: Q04DX002 (ip), vehicle: Klucel (hydroxypropylcellulose) (HPC)): 93 % of control

Structure (SMILES): O=C(O)/C(=C\c1ccccc1)Sc1ccccc1
- T/C (dose: 75.0 mg/kg/injection, schedule: Q01DX001 (ip), vehicle: acetone): 105 % of control
- T/C (dose: 150.0 mg/kg/injection, schedule: Q01DX001 (ip), vehicle: acetone): 98 % of control
- T/C (dose: 300.0 mg/kg/injection, schedule: Q01DX001 (ip), vehicle: acetone): 100 % of control

Structure (SMILES): [N-]=[N+]=NCC1OC(n2cnc3c(NC=O)ncnc32)CC1C(=O)O (centres undefined)
- T/C (dose: 50.0 mg/kg/injection, schedule: Q01DX001 (ip), vehicle: carboxymethylcellulose (CMC)): 109 % of control
- T/C [1]: 101 % of control
- T/C [2]: 114 % of control
- T/C (dose: 400.0 mg/kg/injection, schedule: Q01DX001 (ip), vehicle: carboxymethylcellulose (CMC)): 95 % of control

Structure (SMILES): NC(=O)c1cc(Cl)ccc1OC(=O)Nc1ccccc1F
- T/C [6]: 115 % of control
- T/C [7]: 102 % of control
- T/C [8]: 98 % of control

Structure (SMILES): O=C(O)CNC(=O)NCO
- T/C (dose: 100.0 mg/kg/injection, schedule: Q01DX001 (ip), vehicle: acetone): 100 % of control
- T/C (dose: 200.0 mg/kg/injection, schedule: Q01DX001 (ip), vehicle: acetone): 100 % of control
- T/C (dose: 400.0 mg/kg/injection, schedule: Q01DX001 (ip), vehicle: acetone): 103 % of control

Structure (SMILES): O=C(/C=C/c1ccccc1)Nc1ccc(Cl)cc1C(=O)c1ccccc1
- T/C [6]: 102 % of control
- T/C [7]: 97 % of control
- T/C [8]: 94 % of control

Structure (SMILES): O=C(O)c1ccc[nH]c1=O
- T/C (dose: 100.0 mg/kg/injection, schedule: Q01DX001 (ip), vehicle: saline with Tween-80): 97 % of control
- T/C (dose: 200.0 mg/kg/injection, schedule: Q01DX001 (ip), vehicle: saline with Tween-80): 95 % of control
- T/C (dose: 400.0 mg/kg/injection, schedule: Q01DX001 (ip), vehicle: saline with Tween-80): 98 % of control

Structure (SMILES): CC(C)C(C(=O)O)N1C(=O)C2C3CCC(C3)C2C1=O (centres undefined)
- T/C [9]: 86 % of control
- T/C [10]: 93 % of control
- T/C [3]: 89 % of control
- T/C [11]: 96 % of control
- T/C [4]: 103 % of control
- T/C [5]: 98 % of control

Structure (SMILES): COC(=O)c1cn(C2OC(CO)C(O)C2O)c2ncnc(N)c12 (centres undefined)
- T/C (dose: 20.0 mg/kg/injection, schedule: Q01DX001 (ip), vehicle: water): 108 % of control
- T/C (dose: 40.0 mg/kg/injection, schedule: Q01DX001 (ip), vehicle: water): 89 % of control

Structure (SMILES): Cc1cccc(CC(O)(CC(O)(c2ccccc2)c2ccccc2)c2ccccc2)c1 (centres undefined)
- T/C [12]: 96 % of control
- T/C [13]: 98 % of control
- T/C [14]: 97 % of control

Structure (SMILES): Cc1cc2oc(=O)c3c(c2c(O)c1CN1CCN(C)CC1)CCCC3
- T/C [15]: 95 % of control
- T/C [16]: 92 % of control

Structure (SMILES): CCCNCCC[P+](c1ccccc1)(c1ccccc1)c1ccccc1
- T/C (dose: 25.0 mg/kg/injection, schedule: Q04DX002 (ip), vehicle: saline): 102 % of control
- T/C (dose: 50.0 mg/kg/injection, schedule: Q04DX002 (ip), vehicle: saline): 98 % of control
- T/C (dose: 100.0 mg/kg/injection, schedule: Q04DX002 (ip), vehicle: saline): 98 % of control and 91 % of control

Structure (SMILES): NC(=O)C1C(=O)c2cccc3c2C1(Br)C(Br)CCC3 (centres undefined)
- T/C [15]: 93 % of control

Structure (SMILES): O=C1c2cccc(S(=O)(=O)O)c2C(=O)c2cccc(S(=O)(=O)O)c21
- T/C (dose: 50.0 mg/kg/injection, schedule: Q01DX001 (ip), vehicle: saline): 102 % of control
- T/C [15]: 109 % of control
- T/C [16]: 111 % of control
- T/C (dose: 400.0 mg/kg/injection, schedule: Q01DX001 (ip), vehicle: saline): 109 % of control

Structure (SMILES): CCCCn1cnc2c(SSc3ncnc4c3ncn4CCCC)ncnc21
- T/C (dose: 37.5 mg/kg/injection, schedule: Q01DX Z (ip), vehicle: saline): 109 % of control
- T/C (dose: 150.0 mg/kg/injection, schedule: Q01DX Z (ip), vehicle: saline): 124 % of control
- T/C (dose: 166.0 mg/kg/injection, schedule: Q04DX003 (ip), vehicle: gum acacia): 121 % of control

Structure (SMILES): CC1NCCOC1c1ccccc1 (centres undefined)
- T/C (dose: 12.5 mg/kg/injection, schedule: Q01DX009 (ip), vehicle: saline): 93 % of control
- T/C (dose: 25.0 mg/kg/injection, schedule: Q01DX009 (ip), vehicle: saline): 108 % of control and 92 % of control
- T/C [9]: 114 % of control
- T/C (dose: 50.0 mg/kg/injection, schedule: Q01DX009 (ip), vehicle: saline): 100 % of control and 108 % of control
- T/C [10]: 103 % of control
- T/C (dose: 100.0 mg/kg/injection, schedule: Q01DX009 (ip), vehicle: saline): 106 % of control
- T/C [11]: 100 % of control
- T/C (dose: 200.0 mg/kg/injection, schedule: Q04DX003 (ip), vehicle: saline): 88 % of control

Structure (SMILES): CCOC(=O)Cc1cc(=O)c2ccccc2[nH]1
- T/C [12]: 96 % of control
- T/C [13]: 97 % of control
- T/C [14]: 103 % of control
